Paper PMC7913925, “Design and Evaluation of a Polypeptide That Mimics the Integrin Binding Site for EDA Fibronectin to Block Profibrotic Cell Activity” (International Journal of Molecular Sciences, 2021)
Bridges are numbered along the chain shown (N, C = ends). Where no end group is shown, it is not given here.

What was measured:
[1] = target: FN-RGD (RGD motif of fibronectin) (Homo sapiens, UniProt P02751); assay: Isothermal calorimetry, AF38Pep with FN-RGD; assay type: binding; conditions: 25 °C, pH 7
Method: Custom designed peptides were resuspended in sterile-filtered HEPES buffered saline (140 mM NaCl, 1.5 mM Na2HPO4, 50 mM HEPES; pH 7). The larger EDA-FN binding peptide was diluted to 15 µM, degassed and added to the calorimetry chamber well. Three smaller test peptides (fibronectin EDA-peptide, FN-EDA; fibronectin RGD-peptide, FN-RGD and collagen I RGD-peptide, COL-RGD) were diluted to 300 µM, degassed and each was separately loaded into the calorimetry injection needle. The chamber well temperature was kept consistent at 25 °C. Blank buffer was used to replace either the well peptide or the injection needle peptide to account for background heat generation. Isothermal titration calorimetry was performed using a MicroCal iTC200 (Malvern Panalytical, Malvern, UK) and dissociation constant (KD) and association constant (KA) were calculated using the one set of sites model fitting (with number of binding sites assumed to be 1) in MicroCal Origin Software v8.5 (Malvern Panalytical).

[2] = system: Mrtfa mRNA in NIH/3T3 fibroblasts; assay: qRT-PCR Mrtfa mRNA; assay type: cell-based, mouse; conditions: 48 h, TGF-β1 10 ng/mL
Method: (§1) Reverse transcription (RT) and real-time quantitative PCR (qRT-PCR) were used to assess ACTA2/Acta2, Col1a1, Col3a1, Fn1, Eda-Fn1, Mmp9, Tgfb1, Ltbp1, Hic5, and Mrtfa mRNA expressions. Custom PCR primers were designed in-house (Table 2) and then synthesized by BGI (Beijing, China). Cells were grown in 6-well culture plates and washed with phosphate buffered saline (PBS) before lysis with TRIzon Reagent (CWBio, Beijing, China) and total RNA purification according to the manufacturer’s protocol. Reverse transcription was carried using the TransScript First-Strand cDNA Synthesis SuperMix kit according to the manufacturer’s protocol (TransGen, Beijing, China), using the random primer method for the initiation of cDNA synthesis. Nuclease-free H2O replaced the RNA sample to serve as a negative control for the reverse transcription reaction. For qRT-PCR, 10 µL 2× TransStart Top Green qPCR SuperMix was added to each well of a 96-well PCR plate containing 0.4 µL forward primer, 0.4 µL reverse primer, […], and nuclease-free water to a total volume of 20 µL. The qRT-PCR reaction was completed using a CFX96 Real-Time PCR Detection System (Bio-Rad Laboratories, Hercules, CA, USA). Amplification used the following parameters: 94 °C for 30 s, followed by 40 cycles of 94 °C for 5 s, 55 °C for 15 s, 72 °C for 10 s, and then a dissociation stage (melt-curve). […]

[3] = system: Col3a1 mRNA; assay: qRT-PCR Col3a1 mRNA; assay type: cell-based, mouse
Method: as §1

## VMPYISTTPAKPCTSENCGNSWYGGFKSKNENKIYFIN (disulfide 13-18 (inferred)) [AF38Pep]
[1]
  ITC interaction (thermogram): not between AF38Pep and FN-RGD or COL-RGD
[2]
  MRTFA mRNA expression: attenuated
[3]; 72 h, TGF-β1 + AF38Pep
  collagen type III mRNA expression: all inhibited
[3]; by 48 h, vs TGF-β1-only
  collagen type III mRNA expression: significant attenuation
